Experimental findings from patent publication US10131681B2, “Aminophosphinic derivatives that can be used in the treatment of pain” (PHARMALEADS, priority 2008, dated 2018) are described below.

The test system of data set [1] is OF1 male mice. Put plainly: Von Frey test, mechanical allodynia after partial ligation of the sciatic nerve. It counts as in vivo. How it is done:
(§1) This test was described in detail by A. B. Malmberg and A. I. Basbaum, Partial Sciatic nerve injury in the mouse as a model of neuropathic pain: behavioural and neuroanatomical correlates. Pain, (1998) 76, 215-222.
(§2) It was performed on OF1 male mice (Charles River, n=39), weighing 18 to 20 g, by partial ligation of the sciatic nerve on the ipsilateral side. The animals are tested over a period of 3 to 26 days after the operation.
The mechanical allodynia is measured as described by S. R. Chaplan et al., Quantitative assessment of tactile allodynia in the rat paw, J. Neurosci. Meth. (1994), 53, 55-63. The ipsilateral (lesion) and contralateral (control) paws are tested as above, the mechanical anti-allodynia effect being measured using the Von Frey method (Malmerg A. B. and Basbaum A. I., 1998, Pain, 76, 215-222) with filaments of increasing size likewise applying an increasing pressure.

The test system of data set [2] is OF1 male mice. Kind of data set: Plantar test, thermal hyperalgesia after partial ligation of the sciatic nerve. The data set is classed as in vivo. To be noted: 50 mg/kg oral. How it is done:
as §1, §2
The hyperalgesia was measured according to the method described by K. Hargreaves et al., A new sensitive method for measuring thermal nociception in cutaneous hyperalgesia, Pain (1988), 32, 77-88, using the “Plantar test” device (Bioseb, France) as the heat source. The intensity of the nociceptive stimulus is calibrated at 8-10 s with an automatic cut-off time of 20 seconds. The mean heat-induced paw withdrawal was measured on the ipsilateral (damaged nerve) and contralateral (intact nerve) paws. Each measurement is made 3 times on each paw.

Data set [3] relates to OF1 male mice. Put plainly: Formalin test (phase I), paw licking after oral administration. It counts as in vivo. On the procedure: A/ Formalin Test (Phase I)
The molecules were studied at one time (90 min) for comparative tests and at two times, 90 and 150 minutes, so as to observe the period of action thereof.
The animals (OF1 male mice) were obtained from the Charles River breeding centre (France) and weighed […] at the start of the experiment. The weight of each mouse is taken into account for the administration of the product.
The test is based on the protocol described by S. HUNSKAAR et al., Formalin test in mice, a useful technique for evaluating mild analgesics, J. Neurosci. Methods (1995), 14, 69-75. The early part of the test ([…] after injecting formalin), is considered to reflect […], which is under study.
The mice (n=8) are placed individually in a transparent container (50×25 cm^2) and are acclimatised to this environment for 20 minutes. […] Each mouse is then immediately returned to the test container and pain (nociceptive) responses are measured for 5 minutes (early phase). Only the number of times the paw is licked is counted. […]
The analgesic action of the product is measured by the decline in the number of times the injured paw is licked, compared to the number of times the animal receiving the vehicle only licks its paw. The total (discontinuous) licking time, expressed in seconds for each mouse, is counted for […]. […]

The nature of data set [4]: Stability in solution of a prior art pro-drug in a parenteral vehicle, followed by HPLC. The data set is classed as physicochemical. Particulars: ethanol/cremophor/H2O mixture (1:1:8). How it is done: The study in solution of a compound according to the prior art was conducted as follows:
The compound according to the prior art is placed in solution in various mixtures used for parenteral administration, the solution subsequently being followed by HPLC (Kromasil C18 4.5*250 mm column, 50% CH3CN (0.1% TFA)/50% H2O (0.1% TFA)) to determine the composition of the solution. In any case, the formation of both products, free phosphonic acid (active compound) and the transfer product, is observed over time as illustrated in the diagram below: […]

For `NCC1(CC(=O)O)CCCCC1` [gabapentin, reference compound], the “anti-allodynia effect used alone” value in data set [1] (30 mg/kg oral, 60 min) was “inactive”.
Regarding `CC(OC(=O)N[C@@H](C)P(=O)(O)C[C@@H](Cc1ccc(-c2ccccc2)cc1)C(=O)N[C@@H](C)C(=O)OCc1ccccc1)OC(=O)C(C)C` (some centres unmarked) [Example 3, 2-(2-biphenyl-4-ylmethyl-3-{hydroxy-[1-(1-isobutyryloxy-ethoxycarbonylamino)-ethyl]-phosphinoyl}-propionylamino)-propionic acid benzyl ester], the “time of peak anti-hyperalgesia effect” value in data set [2] stood at 90 min. Moreover, the “paw withdrawal, mean of contralateral paws” value in data set [2] (90 min, 14 days after surgery, contralateral paw) is recorded as 9.4 s. Moreover, the “reduction in thermal hyperalgesia” value in data set [2] (period 45-120 min, ipsilateral paw) is reported as 65-100%. Also, in data set [1] (50 mg/kg oral), the “time of peak anti-allodynia effect” value is 60 min. Moreover, the long-term anti-allodynia effect entry in data set [1] (50 mg/kg oral, 45-120 min) is listed as “significant”. Besides, the “anti-allodynia effect at peak, % of the peak response (untreated control)” value in data set [1] (50 mg/kg oral, 60 min) was 75%.
As to `CCOC(=O)OC(C)OC(=O)[C@H](C)NC(=O)[C@H](Cc1ccc(-c2ccccc2)cc1)CP(=O)(O)[C@H](C)NC(=O)OC(C)OC(=O)C(C)C` (some centres unmarked) [Example 8, 2-(2-biphenyl-4-ylmethyl-3-{hydroxy-[1-(1-isobutyryloxy-ethoxycarbonylamino)-ethyl]-phosphinoyl}-propionylamino)-propionic acid 1-ethoxycarbonyloxyethyl ester], the “analgesic activity at 90 minutes” value in data set [3] (50 mg/kg per os) is on record as “very significant analgesic activity”.
On to `CC(OC(=O)N[C@@H](C)P(=O)(O)C[C@@H](Cc1ccc(-c2ccccc2)cc1)C(=O)N[C@@H](C)C(=O)O)OC(=O)C(C)C` (some centres unmarked) [Example 4, 2-(2-biphenyl-4-ylmethyl-3-{hydroxy-[1-(1-isobutyryloxy-ethyloxycarbonylamino)-ethyl]-phosphinoyl}-propionylamino)-propionic acid], for which, in data set [1] (10 mg/kg oral, 60 min), the “anti-allodynia effect used alone” value was “inactive”.
Consider `CCOC(=O)OC(C)OC(=O)[C@H](C)NC(=O)[C@H](Cc1ccc(-c2ccccc2)cc1)CP(=O)(O)[C@H](C)N.O=CO` (some centres unmarked) [reference molecule, reference compound], for which, in data set [3] (100 mg/kg per os), the “analgesic activity at 90 minutes” value is “no activity”.
On to `CCOC(=O)[C@H](C)NC(=O)[C@H](Cc1ccc(-c2ccccc2)cc1)CP(=O)(OC(C)OC(=O)C(C)C)[C@H](C)N` (some centres unmarked) [prior art compound], for which the “% initial compound” value worked out at 90.5% in data set [4] (0 hrs after solubilisation), 82.0% in data set [4] (3 hrs after solubilisation), 75.7% in data set [4] (6 hrs after solubilisation) and 25.1% in data set [4] (96 hrs after solubilisation).
